Measurements as given in patent US12723063B2, “GIPR-agonist compounds” (Eli Lilly and Company, priority 2019, dated 2026).
*1 amine or outer side, *2 acyl side, *3 side chain or, on linkers, in order; H or OH if unused. Where a SMILES comes first, the peptide text is derived from it. Side-chain parts run from the residue outwards. [ ]: non-standard residue; d: D form. The star is where a group is joined. C20 diacid = O=C(O)CCCCCCCCCCCCCCCCCCC(=O)*; C18 diacid = O=C(O)CCCCCCCCCCCCCCCCC(=O)*; αMePhe(2-F) = C[C@](N)(Cc1ccccc1F)C(=O)O; γGlu = O=C(O)[C@H](CCC(=O)[*:2])N[*:1]; 4Pal = N[C@@H](Cc1ccncc1)C(=O)O; αMeL = CC(C)C[C@](C)(N)C(=O)O; Orn = NCCC[C@H](N)C(=O)O; AEEA = NCCOCCOCC(=O)O; Aib = CC(C)(N)C(=O)O

Experiments:
[1] = target: T1, human GLP-1 receptor (GLP-1R) (Homo sapiens, UniProt P43220); assay: cAMP functional assay (HTRF) in HEK293 cells in presence of 0.1% casein; assay type: cell-based; conditions: HEK293 cells expressing human GLP-1R, geometric mean, read-out: hGLP1R cAMP Rel EC50 nM (SEM, n)
T1 construct: expressed in transfected cells; host or cells: HEK293
T1 sequence (P43220 24-463): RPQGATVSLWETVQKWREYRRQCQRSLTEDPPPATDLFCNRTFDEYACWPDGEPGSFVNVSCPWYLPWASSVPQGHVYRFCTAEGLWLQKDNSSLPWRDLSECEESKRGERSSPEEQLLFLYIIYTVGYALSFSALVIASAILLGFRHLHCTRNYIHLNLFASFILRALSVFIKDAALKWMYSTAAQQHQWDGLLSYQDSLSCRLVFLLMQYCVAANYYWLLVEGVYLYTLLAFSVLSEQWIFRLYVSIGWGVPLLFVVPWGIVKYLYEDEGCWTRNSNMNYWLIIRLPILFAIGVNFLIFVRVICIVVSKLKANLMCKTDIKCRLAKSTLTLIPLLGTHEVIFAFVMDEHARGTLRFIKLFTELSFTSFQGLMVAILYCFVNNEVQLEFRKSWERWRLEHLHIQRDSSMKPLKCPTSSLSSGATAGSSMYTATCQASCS

[2] = target: T2, human glucagon receptor (GcgR) (Homo sapiens, UniProt P47871); assay: as above; assay type: cell-based; conditions: HEK293 cells expressing human GcgR, geometric mean, read-out: hGcgR cAMP Rel EC50 nM (SEM, n)
T2 construct: expressed in transfected cells; host or cells: HEK293
T2 sequence (P47871 26-477): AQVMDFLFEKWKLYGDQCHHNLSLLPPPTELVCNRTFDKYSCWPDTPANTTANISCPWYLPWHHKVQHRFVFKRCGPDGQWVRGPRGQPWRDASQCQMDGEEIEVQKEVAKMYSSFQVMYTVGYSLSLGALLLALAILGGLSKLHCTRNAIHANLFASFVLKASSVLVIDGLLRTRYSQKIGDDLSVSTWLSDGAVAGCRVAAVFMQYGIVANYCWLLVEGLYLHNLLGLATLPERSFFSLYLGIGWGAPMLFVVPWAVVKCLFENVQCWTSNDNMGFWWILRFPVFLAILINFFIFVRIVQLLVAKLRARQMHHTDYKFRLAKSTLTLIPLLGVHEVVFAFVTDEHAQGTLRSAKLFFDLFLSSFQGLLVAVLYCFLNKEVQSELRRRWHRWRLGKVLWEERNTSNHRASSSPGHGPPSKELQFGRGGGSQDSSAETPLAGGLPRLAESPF

[3] = target: T3, human glucose-dependent insulinotropic peptide receptor (GIPR) (Homo sapiens, UniProt P48546); assay: as above; assay type: cell-based; conditions: HEK293 cells expressing human GIPR, geometric mean, read-out: hGIPR cAMP Rel EC50 nM (SEM, n)
T3 construct: expressed in transfected cells; host or cells: HEK293
T3 sequence (P48546 22-466): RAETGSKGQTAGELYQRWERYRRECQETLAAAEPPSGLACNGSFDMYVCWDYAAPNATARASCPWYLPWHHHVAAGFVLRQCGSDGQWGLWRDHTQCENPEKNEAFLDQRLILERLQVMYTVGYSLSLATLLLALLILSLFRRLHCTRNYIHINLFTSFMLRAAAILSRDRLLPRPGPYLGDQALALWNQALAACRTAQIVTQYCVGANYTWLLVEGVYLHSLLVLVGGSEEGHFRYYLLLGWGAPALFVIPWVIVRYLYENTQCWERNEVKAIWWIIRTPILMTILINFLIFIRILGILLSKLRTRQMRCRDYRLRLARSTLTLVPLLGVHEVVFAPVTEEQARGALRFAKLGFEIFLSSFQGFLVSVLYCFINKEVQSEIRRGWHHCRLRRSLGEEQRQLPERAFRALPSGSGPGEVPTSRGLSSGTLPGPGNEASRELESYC

[4] = Pharmacokinetics in male cynomolgus monkeys, single subcutaneous administration; assay type: in vivo, cynomolgus monkey; conditions: 50 nmol/kg single SC, mean n = 2
Method: The pharmacokinetics of select Examples are evaluated following a single subcutaneous administration of 50 nmol/kg to male cynomolgus monkeys. Blood samples are collected over 504 hours and resulting individual plasma concentrations are used to calculate pharmacokinetic parameters. Peptide plasma (K3 EDTA) concentrations are determined using a qualified LC/MS method that measured the intact mass of the compound. Each peptide and an analog as an internal standard are extracted from 100% cynomolgus monkey plasma using a protein precipitation method. Instruments are combined for LC/MS detection.

Compound	EC50 [1] [nM]	EC50 [2] [nM]	EC50 [3] [nM]	AUCInf/Dose [4] [hr*kg*nmol/L/nmol]	Cmax/Dose [4] [kg*nmol/L/nmol]	CL/F ([4]; cynomolgus monkey, plasma) [mL/day/kg]	Tmax ([4]; cynomolgus monkey, plasma) [h]	half-life ([4]; cynomolgus monkey, plasma) [h]
CC[C@H](C)[C@H](NC(=O)[C@H](Cc1ccccc1)NC(=O)[C@@H](NC(=O)CNC(=O)[C@H](CCC(=O)O)NC(=O)C(C)(C)NC(=O)[C@@H](N)Cc1ccc(O)cc1)[C@@H](C)O)C(=O)N[C@@H](CO)C(=O)N[C@@H](CC(=O)O)C(=O)N[C@@H](Cc1ccc(O)cc1)C(=O)N[C@@H](CO)C(=O)N[C@H](C(=O)N[C@@](C)(CC(C)C)C(=O)N[C@@H](CC(C)C)C(=O)N[C@@H](CC(=O)O)C(=O)N[C@@H](CCCN)C(=O)N[C@@H](CCCCNC(=O)COCCOCCNC(=O)COCCOCCNC(=O)CC[C@H](NC(=O)CCCCCCCCCCCCCCCCCCC(=O)O)C(=O)O)C(=O)N[C@@H](Cc1c[nH]cn1)C(=O)N[C@@H](CCC(N)=O)C(=O)NC(C)(C)C(=O)N[C@@H](CC(=O)O)C(=O)N[C@@H](Cc1ccccc1)C(=O)N[C@H](C(=O)N[C@@H](CCC(=O)O)C(=O)N[C@@H](Cc1ccncc1)C(=O)N[C@@H](CC(C)C)C(=O)N[C@@H](CC(C)C)C(=O)N[C@@H](CCC(=O)O)C(=O)N[C@@H](C)C(=O)NCC(=O)N1CCC[C@H]1C(=O)N[C@@H](CO)C(=O)N[C@@H](CO)C(=O)NCC(=O)N[C@@H](C)C(=O)N1CCC[C@H]1C(=O)N1CCC[C@H]1C(=O)N1CCC[C@H]1C(=O)N[C@@H](CO)C(N)=O)C(C)C)[C@@H](C)CC [Example 4]	> 5000	1690	0.0182	1387	8.71	17.3	6	124
CC[C@H](C)[C@H](NC(=O)[C@H](Cc1ccccc1)NC(=O)[C@@H](NC(=O)CNC(=O)[C@H](CCC(=O)O)NC(=O)C(C)(C)NC(=O)[C@@H](N)Cc1ccc(O)cc1)[C@@H](C)O)C(=O)N[C@@H](CO)C(=O)N[C@@H](CC(=O)O)C(=O)N[C@@H](Cc1ccc(O)cc1)C(=O)N[C@@H](CO)C(=O)N[C@H](C(=O)N[C@@](C)(CC(C)C)C(=O)N[C@@H](CC(C)C)C(=O)N[C@@H](CC(=O)O)C(=O)N[C@@H](CCCN)C(=O)N[C@@H](CCCCNC(=O)COCCOCCNC(=O)COCCOCCNC(=O)CC[C@H](NC(=O)CCCCCCCCCCCCCCCCC(=O)O)C(=O)O)C(=O)N[C@@H](Cc1c[nH]cn1)C(=O)N[C@@H](CCC(N)=O)C(=O)NC(C)(C)C(=O)N[C@@H](CC(=O)O)C(=O)N[C@@H](Cc1ccccc1)C(=O)N[C@H](C(=O)N[C@@H](CCC(=O)O)C(=O)N[C@@H](Cc1ccncc1)C(=O)N[C@@H](CC(C)C)C(=O)N[C@@H](CC(C)C)C(=O)N[C@@H](CCC(=O)O)C(=O)N[C@@H](C)C(=O)NCC(=O)N1CCC[C@H]1C(=O)N[C@@H](CO)C(=O)N[C@@H](CO)C(=O)NCC(=O)N[C@@H](C)C(=O)N1CCC[C@H]1C(=O)N1CCC[C@H]1C(=O)N1CCC[C@H]1C(=O)N[C@@H](CO)C(N)=O)C(C)C)[C@@H](C)CC [Example 87] (H-Y[Aib]EGTFISDYSI[αMeL]LD[Orn]K([AEEA-AEEA-γGlu-C18 diacid])HQ[Aib]DFVE[4Pal]LLEAGPSSGAPPPS-NH2)	> 5000	> 5000	0.0107	–	–	–	–	–
CC[C@H](C)[C@H](NC(=O)[C@H](CO)NC(=O)[C@H](Cc1ccc(O)cc1)NC(=O)[C@H](CC(=O)O)NC(=O)[C@H](CO)NC(=O)[C@@H](NC(=O)[C@](C)(Cc1ccccc1F)NC(=O)[C@@H](NC(=O)CNC(=O)[C@H](CCC(=O)O)NC(=O)C(C)(C)NC(=O)[C@@H](N)Cc1ccc(O)cc1)[C@@H](C)O)[C@@H](C)CC)C(=O)N[C@@H](CC(C)C)C(=O)N[C@@H](CC(C)C)C(=O)N[C@@H](CC(=O)O)C(=O)N[C@@H](CCCCN)C(=O)N[C@H](C(=O)N[C@@H](Cc1c[nH]cn1)C(=O)N[C@@H](CCC(N)=O)C(=O)NC(C)(C)C(=O)N[C@@H](CC(=O)O)C(=O)N[C@@H](Cc1ccccc1)C(=O)N[C@H](C(=O)N[C@@H](CCC(=O)O)C(=O)N[C@@H](Cc1ccncc1)C(=O)N[C@@H](CCCCNC(=O)COCCOCCNC(=O)COCCOCCNC(=O)CC[C@H](NC(=O)CCCCCCCCCCCCCCCCCCC(=O)O)C(=O)O)C(=O)N[C@@H](CC(C)C)C(=O)N[C@@H](CCC(=O)O)C(=O)N[C@@H](CCC(N)=O)C(=O)NCC(=O)N1CCC[C@H]1C(=O)N[C@@H](CO)C(=O)N[C@@H](CO)C(=O)NCC(=O)N[C@@H](C)C(=O)N1CCC[C@H]1C(=O)N1CCC[C@H]1C(=O)N1CCC[C@H]1C(=O)N[C@@H](CO)C(N)=O)C(C)C)[C@@H](C)CC [Example 121] (H-Y[Aib]EGT[αMePhe(2-F)]ISDYSILLDKIHQ[Aib]DFVE[4Pal]K([AEEA-AEEA-γGlu-C20 diacid])LEQGPSSGAPPPS-NH2)	> 5000	> 5000	0.0196	–	–	–	–	–
CC[C@H](C)[C@H](NC(=O)[C@H](CO)NC(=O)[C@H](Cc1ccc(O)cc1)NC(=O)[C@H](CC(=O)O)NC(=O)[C@H](CO)NC(=O)[C@@H](NC(=O)[C@](C)(Cc1ccccc1F)NC(=O)[C@@H](NC(=O)CNC(=O)[C@H](CCC(=O)O)NC(=O)C(C)(C)NC(=O)[C@@H](N)Cc1ccc(O)cc1)[C@@H](C)O)[C@@H](C)CC)C(=O)N[C@@H](CC(C)C)C(=O)N[C@@H](CC(C)C)C(=O)N[C@@H](CC(=O)O)C(=O)N[C@@H](CCCCN)C(=O)N[C@H](C(=O)N[C@@H](Cc1c[nH]cn1)C(=O)N[C@@H](CCC(N)=O)C(=O)NC(C)(C)C(=O)N[C@@H](CC(=O)O)C(=O)N[C@@H](Cc1ccccc1)C(=O)N[C@H](C(=O)N[C@@H](CCC(=O)O)C(=O)N[C@@H](Cc1ccncc1)C(=O)N[C@@H](CCCCNC(=O)COCCOCCNC(=O)COCCOCCNC(=O)CC[C@H](NC(=O)CCCCCCCCCCCCCCCCCCC(=O)O)C(=O)O)C(=O)N[C@@H](CC(C)C)C(=O)N[C@@H](CCC(=O)O)C(=O)NCC(=O)NCC(=O)N1CCC[C@H]1C(=O)N[C@@H](CO)C(=O)N[C@@H](CO)C(=O)NCC(=O)N[C@@H](C)C(=O)N1CCC[C@H]1C(=O)N1CCC[C@H]1C(=O)N1CCC[C@H]1C(=O)N[C@@H](CO)C(N)=O)C(C)C)[C@@H](C)CC [Example 119] (H-Y[Aib]EGT[αMePhe(2-F)]ISDYSILLDKIHQ[Aib]DFVE[4Pal]K([AEEA-AEEA-γGlu-C20 diacid])LEGGPSSGAPPPS-NH2)	> 5000	> 5000	0.022	–	–	–	–	–
CC[C@H](C)[C@H](NC(=O)[C@H](CCCN)NC(=O)[C@H](CC(=O)O)NC(=O)[C@H](CC(C)C)NC(=O)[C@](C)(CC(C)C)NC(=O)[C@@H](NC(=O)[C@H](CO)NC(=O)[C@H](Cc1ccc(O)cc1)NC(=O)[C@H](CC(=O)O)NC(=O)[C@H](CO)NC(=O)[C@@H](NC(=O)[C@H](Cc1ccccc1)NC(=O)[C@@H](NC(=O)CNC(=O)[C@H](CCC(=O)O)NC(=O)C(C)(C)NC(=O)[C@@H](N)Cc1ccc(O)cc1)[C@@H](C)O)[C@@H](C)CC)[C@@H](C)CC)C(=O)N[C@@H](Cc1c[nH]cn1)C(=O)N[C@@H](CCC(N)=O)C(=O)NC(C)(C)C(=O)N[C@@H](CCC(=O)O)C(=O)N[C@@H](Cc1ccccc1)C(=O)N[C@H](C(=O)N[C@@H](CCC(=O)O)C(=O)N[C@@H](Cc1ccc(O)cc1)C(=O)N[C@@H](CCCCNC(=O)COCCOCCNC(=O)COCCOCCNC(=O)CC[C@H](NC(=O)CCCCCCCCCCCCCCCCCCC(=O)O)C(=O)O)C(=O)N[C@@H](CC(C)C)C(=O)N[C@@H](CCC(=O)O)C(=O)N[C@H](C(=O)NCC(=O)N1CCC[C@H]1C(=O)N[C@@H](CO)C(=O)N[C@@H](CO)C(=O)NCC(=O)N[C@@H](C)C(=O)N1CCC[C@H]1C(=O)N1CCC[C@H]1C(=O)N1CCC[C@H]1C(=O)N[C@@H](CO)C(N)=O)[C@@H](C)O)C(C)C [Example 105] (H-Y[Aib]EGTFISDYSI[αMeL]LD[Orn]IHQ[Aib]EFVEYK([AEEA-AEEA-γGlu-C20 diacid])LETGPSSGAPPPS-NH2)	> 5000	> 5000	0.0179	–	–	–	–	–
